From patent US6844343B1, “N-substituted 4-aminopteridines, synthesis and use thereof as pharmaceutical agent” (Vasopharm Biotech GmbH, priority 1999, dated 2005)

test system: purified NO synthase from pig cerebellum or from pig liver; test: Activity assay of purified NOS (3H-L-arginine to 3H-L-citrulline conversion); type: biochemical; conditions: substance 100 μM, in the presence of 2 μM tetrahydrobiopterin, 15 min at 37° C.
Description: The inhibition of the activity of purified nitric oxide synthase (NOS) by compounds of the general formula I can be determined as follows.
In this activity assay the L-citrulline which is a coproduct of the formation of NO by purified NOS is quantitatively measured. ^3H-radiolabeled L-arginine is employed as substrate of the enzyme reaction and is converted into ^3H-L-citrulline and NO. After completion of the enzyme incubation, generated L-citrulline is removed from unused L-arginine by ion exchange chromatography from the reaction mixture; the ^3H activity measured by liquid scintillation then is corresponds to the amount of L-citrulline, which is a direct measure of the activity of NOS.
The basic medium for carrying out the enzyme reaction is TE buffer (triethanolamine, EDTA, pH 7.0).
The final volume of each incubation is 100 μl. The reaction mixture is obtained by mixing the following 6 components on ice: • 1. “REA-Mix” (pH 7.0) which contains triethanolamine, calcium chloride, magnesium chloride, EDTA, L-arginine, calmodulin and flavin adenine dinucleotide (FAD); • 2. freshly prepared stock solution of β-nicotinamide adenine dinucleotide phosphate, reduced form (NADPH); • 3. (6R)-5,6,7,8-tetrahydro-L-biopterin dihydro-chloride stock solution (BH4) or —for experiments without BH4-instead TE buffer; • 4. purified NO synthase from pig cerebellum or from pig liver; • 5.
After mixing of the components on ice, the reaction mixture was immediately incubated in a water bath at 37° C. for 15 minutes. […] After this incubation time, the reaction was stopped by addition of 900 μl of ice-cold “stop buffer” (20 mM sodium acetate, 2 mM EDTA, pH 5.5), and the mixture (total volume now 1.0 ml) was placed on ice. To remove the unreacted ^3H-L-arginine, the mixture was loaded onto an ion exchange column with 0.8 ml of Dowex AG 50 WX-8 (100-200 mesh) which has previously been washed and equilibrated with 2 ml of stop buffer. After loading of the sample, the column was eluted twice with 1 ml of water each time. The flow-through of the sample and the eluate were collected in scintillation vessels and […] (total volume 3 ml). 9 ml of scintillator solution were added to the 3 ml of aqueous measurement solution, and the homogeneous mixture was measured in a Tricarb 2500 TR (Packard) liquid scintillation counter for 1 minute for each sample. […] Each substance was tested for an antagonistic effect in a concentration of 100 μM in the presence of 2 μM tetrahydrobiopterin, and for an agonistic effect on NOS in the absence of tetrahydrobiopterin.
All incubations were carried out on triplicates. Each experiment was repeated three times with different enzyme preparations.

| Compound | Remaining activity (% of Vmax) |
| --- | --- |
| 2-amino-4-(4-methylpiperazin-1-yl)-6-(4-chloro-phenyl)pteridine hemihydrate [Example 36] | 64 ± 9 % of Vmax |
| 2-amino-4-(4-methylpiperazin-1-yl)-6-(4-methoxy-phenyl)pteridine hemihydrate [Example 37] | 84 ± 5 % of Vmax |
| 2-amino-4-(4-methylpiperazin-1-yl)-6-phenyl-pteridine hemihydrate [Example 35] | 83 ± 1 % of Vmax |
| 2-amino-4-(morpholin-4-yl)-6-(4-methoxyphenyl)-5,6,7,8-tetrahydropteridine hydrochloride hemi-hydrate [Example 40] | 66 ± 14 % of Vmax |
| 2-amino-4-(morpholin-4-yl)-6-phenyl-5,6,7,8-tetra-hydropteridine dihydrochloride hemihydrate [Example 42] | 51 ± 3 % of Vmax |
| CN(C)c1nc(N)nc2ncc(-c3ccccc3)nc12 [Example 11, 2-amino-4-(dimethylamino)-6-phenylpteridine] | 92 ± 11 % of Vmax |
| Cc1ccc(-c2cnc3nc(N)nc(N(C)C)c3n2)cc1 [Example 12, 2-amino-4-(dimethylamino)-6-(4-methylphenyl)-pteridine] | 15 ± 7 % of Vmax |
| COc1ccc(-c2cnc3nc(N)nc(N(C)C)c3n2)cc1 [Example 13, 2-amino-4-(dimethylamino)-6-(4-methoxyphenyl)-pteridine] | 13 ± 4 % of Vmax |
| CCN(CC)c1nc(N)nc2ncc(-c3ccccc3)nc12.O [Example 15, 2-amino-4-(diethylamino)-6-phenylpteridine hydrate] | 75 ± 3 % of Vmax |
| CCN(CC)c1nc(N)nc2ncc(-c3ccc(Cl)cc3)nc12.O.O [Example 16, 2-amino-4-(diethylamino)-6-(4-chlorophenyl)-pteridine dihydrate] | 42 ± 10 % of Vmax |
| CCN(CC)c1nc(N)nc2ncc(-c3ccc(OC)cc3)nc12.O [Example 17, 2-amino-4-(diethylamino)-6-(4-methoxyphenyl)-pteridine hydrate] | 2 ± 0.1 % of Vmax |
| CCN(CC)c1nc(N)nc2ncc(-c3ccc(OC)c(OC)c3)nc12.O [Example 18, 2-amino-4-(diethylamino)-6-(3,4-dimethoxyphenyl)-pteridine hydrate] | 23 ± 4 % of Vmax |
| Nc1nc(N(Cc2ccccc2)Cc2ccccc2)c2nc(-c3ccccc3)cnc2n1.O.O [Example 19, 2-amino-4-(dibenzylamino)-6-phenylpteridine dihydrate] | 0 ± 0.05 % of Vmax |
| CCCN(CCC)c1nc(N)nc2ncc(-c3ccccc3)nc12.O.O.O [Example 23, 2-amino-4-(di-n-propylamino)-6-phenylpteridine trihydrate] | 77 ± 16 % of Vmax |
| CCCN(CCC)c1nc(N)nc2ncc(-c3ccc(Cl)cc3)nc12.O.O.O [Example 24, 2-amino-4-(di-n-propylamino)-6-(4-chlorophenyl)-pteridine trihydrate] | 7 ± 4 % of Vmax |
| CCCN(CCC)c1nc(N)nc2ncc(-c3ccc(OC)cc3)nc12.O [Example 25, 2-amino-4-(di-n-propylamino)-6-(4-methoxyphenyl)-pteridine hydrate] | 25 ± 12 % of Vmax |
| CCCN(CCC)c1nc(N)nc2ncc(-c3ccc(OC)c(OC)c3)nc12.O [Example 26, 2-amino-4-(di-n-propylamino)-6-(3,4-dimethoxy-phenyl)pteridine hydrate] | 0 % of Vmax |
| Nc1nc(N2CCOCC2)c2nc(-c3ccccc3)cnc2n1.O [Example 27, 2-amino-4-(morpholin-4-yl)-6-phenylpteridine hydrate] | 41 ± 8 % of Vmax |
| Cl.Nc1nc(N2CCOCC2)c2nc(-c3ccc(Cl)cc3)cnc2n1.O [Example 28, 2-amino-4-(morpholin-4-yl)-6-(4-chlorophenyl)-pteridine hydrochloride hydrate] | 3 ± 1.5 % of Vmax |
| COc1ccc(-c2cnc3nc(N)nc(N4CCOCC4)c3n2)cc1OC.O.O.O [Example 30, 2-amino-4-(morpholin-4-yl)-6-(3,4-dimethoxy-phenyl)pteridine trihydrate] | 5 ± 3 % of Vmax |
| Nc1nc(N2CCCCC2)c2nc(-c3ccccc3)cnc2n1.O.O [Example 31, 2-amino-4-(piperidin-1-yl)-6-phenylpteridine dihydrate] | 0 ± 0.05 % of Vmax |
| Nc1nc(N2CCCCC2)c2nc(-c3ccc(Cl)cc3)cnc2n1.O.O [Example 32, 2-amino-4-(piperidin-1-yl)-6-(4-chlorophenyl)-pteridine dihydrate] | 3 ± 1 % of Vmax |
| COc1ccc(-c2cnc3nc(N)nc(N4CCN(C)CC4)c3n2)cc1OC.O.O [Example 38, 2-amino-4-(4-methylpiperazin-1-yl)-6-(3,4-di-methoxyphenyl)pteridine dihydrate] | 99 ± 16 % of Vmax |
| COc1ccc(-c2cnc3nc(N)nc(N4CCCC4)c3n2)cc1.O.O [Example 39, 2-amino-4-(pyrrolidin-1-yl)-6-(4-methoxyphenyl)-pteridine dihydrate] | 30 ± 5 % of Vmax |
| COc1ccc(C2CNc3nc(N)nc(N4CCOCC4)c3N2)cc1OC.Cl.O (stereo not shown) [Example 41, 2-amino-4-(morpholin-4-yl)-6-(3,4-dimethoxy-phenyl)-5,6,7,8-tetrahydropteridine hydrochloride hydrate] | 68 ± 11 % of Vmax |
| Cl.Cl.Cl.Nc1nc2c(c(N3CCCCC3)n1)NC(c1ccc(Cl)cc1)CN2.O (stereo not shown) [Example 43, 2-amino-4-(piperidin-1-yl)-6-(4-chlorophenyl)-5,6,7,8-tetrahydropteridine trihydrochloride hydrate] | 0 % of Vmax |

test system: NO synthase; test: not given; conditions: literature reports on BH4 analogues; cited from earlier work

| Compound | effect on NO production / NO synthase |
| --- | --- |
| CC1CNc2nc(N)[nH]c(=O)c2C1 (stereo not shown) [5-deaza-6-methyl-5,6,7,8-tetrahydropterin] | weak inhibition |
| CC1Nc2nc(N)[nH]c(=O)c2NC1C (stereo not shown) [6,7-dimethyl-5,6,7,8-tetrahydropterin] | no significant effects |
| CC1CNc2nc(N)[nH]c(=O)c2N1 (stereo not shown) [6-methyl-5,6,7,8-tetrahydropterin] | able to partly replace the natural cofactor |
| CC(O)C(O)C1CNc2c(nc(N)[nH]c2=O)N1 (stereo not shown) [7-R/S-BH4] | able to partly replace the natural cofactor |
| C[C@@H](O)[C@@H](O)[C@H]1CNc2nc(N)[nH]c(=O)c2N1 [Example 6S-BH4, 6S-BH4] | able to partly replace the natural cofactor |
| C[C@H](O)[C@H](O)C1=Nc2c(nc(N)[nH]c2=O)NC1 [dihydrobiopterin] | able to partly replace the natural cofactor |
| Nc1nc2c(c(=O)[nH]1)N=C(CNc1ccc(C(=O)N[C@@H](CCC(=O)O)C(=O)O)cc1)CN2 [dihydrofolic acid] | no significant effects |
| Nc1nc2c(c(=O)[nH]1)N=C([C@H](O)[C@H](O)CO)CN2 [dihydroneopterin] | no significant effects |
| Nc1nc2ncc(CNc3ccc(C(=O)N[C@@H](CCC(=O)O)C(=O)O)cc3)nc2c(=O)[nH]1 [folic acid] | no significant effects |
| Nc1nc2[nH]c(=O)cnc2c(=O)[nH]1 [isoxanthopterin] | no significant effects |
| CN(Cc1cnc2nc(N)nc(N)c2n1)c1ccc(C(=O)N[C@@H](CCC(=O)O)C(=O)O)cc1 [methotrexate] | no significant effects |
| Nc1nc2ncc([C@H](O)[C@H](O)CO)nc2c(=O)[nH]1 [neopterin] | no significant effects |
| Nc1nc2nccnc2c(=O)[nH]1 [pterin] | no significant effects |
| Nc1nc2c(c(=O)[nH]1)NC(C(O)C(O)CO)CN2 (stereo not shown) [tetrahydro-neopterin] | no significant effects |
| Nc1nc2c(c(=O)[nH]1)NC(CNc1ccc(C(=O)N[C@@H](CCC(=O)O)C(=O)O)cc1)CN2 (stereo partly shown) [tetrahydrofolic acid] | no significant effects |
| Nc1nc(=O)c2[nH]c(=O)cnc2[nH]1 [xanthopterin] | no significant effects |
| Biopterin | no significant effects |
